# According to patent US20110190503A1, “Thiazolopyridin-2-yloxy-phenyl and thiazolopyrazin-2-yloxy-phenyl amines as modulators of leukotriene A4 hydrolase” (Janssen Pharmaceutical NV, priority 2008, published 2011):
# pIC50: −log10 of the molar value. Structures can show the parent of a compound that is named as a salt.
# Target: T1, recombinant human LTA4 hydrolase (rhLTA4H) (Homo sapiens, UniProt P09960)
# T1 construct: made in house; host or cells: Spodoptera frugiperda (Sf-9) cells, recombinant baculovirus (pFastBac1)
# T1 sequence (P09960 1-611): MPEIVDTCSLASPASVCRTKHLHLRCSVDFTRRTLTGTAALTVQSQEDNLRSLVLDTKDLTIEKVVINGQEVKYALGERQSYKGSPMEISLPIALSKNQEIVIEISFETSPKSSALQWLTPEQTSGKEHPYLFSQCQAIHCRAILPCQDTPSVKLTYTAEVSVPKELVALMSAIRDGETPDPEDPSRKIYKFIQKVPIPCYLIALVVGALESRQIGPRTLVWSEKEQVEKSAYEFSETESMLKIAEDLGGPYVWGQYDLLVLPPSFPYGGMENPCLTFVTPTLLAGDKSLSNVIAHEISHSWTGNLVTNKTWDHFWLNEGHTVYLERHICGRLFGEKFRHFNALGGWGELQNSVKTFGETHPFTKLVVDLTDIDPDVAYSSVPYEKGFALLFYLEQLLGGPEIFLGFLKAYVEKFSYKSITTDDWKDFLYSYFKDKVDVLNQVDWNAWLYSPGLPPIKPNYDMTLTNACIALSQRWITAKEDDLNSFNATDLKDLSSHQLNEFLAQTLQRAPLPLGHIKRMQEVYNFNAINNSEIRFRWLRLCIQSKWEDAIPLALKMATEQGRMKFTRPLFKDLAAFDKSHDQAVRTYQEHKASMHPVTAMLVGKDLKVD
# Assay: Recombinant human LTA4 hydrolase assay for LTA4 hydrolase inhibitor activity
# Assay type: biochemical
# Conditions: rhLTA4H, LTA4 substrate, LTB4 by immunoassay; single determination or average; read-out: IC50
# Experimental: Assay 1: Recombinant Human LTA4 Hydrolase Assay for LTA4 Hydrolase Inhibitor Activity
# Compounds of the present invention were tested for LTA4 hydrolase inhibitor activity against recombinant human LTA4 hydrolase (rhLTA4H). Vectors were prepared and used to express rhLTA4H essentially as follows: LTA4 hydrolase encoding DNA was amplified by polymerase chain reaction (PCR) using a human placental cDNA library as a template. […] The amplified 1.9 kb DNA fragment encoding LTA4 hydrolase was isolated and cloned into the pFastBac1 vector (Invitrogen). Recombinant baculovirus was generated as described by the manufacturer, and used to infect Spodoptera frugiperda (Sf-9) cells. […] The purified enzyme solution was adjusted to contain 0.29 mg/mL LTA4 hydrolase, 50 mM Tris (pH 8.0), 150 mM NaCl, 5 mM dithiothreitol, 50% glycerol, and EDTA-free Complete protease inhibitor cocktail (Roche).
# LTA4 substrate was prepared from the methyl ester of LTA4 (Cayman Chemical) by treatment with 67 equiv of NaOH under nitrogen at rt for 40 min. The LTA4 substrate in its free acid form was kept frozen at −80° C. until needed. Each compound was diluted to different concentrations in assay buffer (from Assay Designs) containing 10% DMSO. A 25-μL aliquot of each compound dilution was incubated for 10 min at rt with an equal volume of assay buffer containing 10 ng of recombinant human LTA4H. The solution was then adjusted to 200 μL with assay buffer. […] Each reaction was carried out at rt for 30 min. The reaction was stopped by diluting 10 μL of the reaction mixture with 200 μL of assay buffer. LTB4 was quantified in the diluted sample by a commercially available enzyme-linked immunoassay (Cayman Chemical Co.), as recommended by the manufacturer. Positive controls, under essentially identical conditions but without addition of an inhibitor compound, and negative controls, containing all assay components except enzyme, were routinely run in each experiment. IC50 values were determined by nonlinear regression of the activity data at different compound concentrations using Graphpad Prism 4.0, one site binding competition.
# The values presented here are the result of a single determination or an average of two or more determinations, as indicated in parentheses following each value. For compounds tested three or more times, the average value is followed by the standard deviation
row,pIC50,SMILES
1,6.05,"NC(=O)N1[C@@H]2CC[C@H]1C[C@H](NCc1ccc(Oc3nc4cccnc4s3)cc1)C2 [Example 201, meso-(3-exo)-3-{[4-([1,3]Thiazolo[5,4-b]pyridin-2-yloxy)benzyl]amino}-8-azabicyclo[3.2.1]octane-8-carboxamide]"
2,6.00,"O=C(O)C1CCN(Cc2ccc(Oc3nc4cccnc4s3)cc2)CC1 [Example 132, 1-[4-([1,3]Thiazolo[5,4-b]pyridin-2-yloxy)benzyl]piperidine-4-carboxylic acid]"
3,6.56,"Cc1cnc2nc(Oc3ccc(OCCN4CCC(C(=O)N5CCOCC5)CC4)cc3)sc2c1 [Example 145, 6-Methyl-2-(4-{2-[4-(morpholin-4-ylcarbonyl)piperidin-1-yl]ethoxy}phenoxy)[1,3]thiazolo[4,5-b]pyridine]"
4,6.49,"CC(=O)N[C@H]1C[C@H]2CC[C@@H](C1)N2Cc1ccc(Oc2nc3ccncc3s2)cc1 [Example 115, meso-N-{(3-endo)-8-[4-([1,3]Thiazolo[5,4-c]pyridin-2-yloxy)benzyl]-8-azabicyclo[3.2.1]oct-3-yl}acetamide]"
5,7.17,"Cc1cnc2nc(Oc3ccc(CN4CCN(C5CCC5)CC4)cc3)sc2c1 [Example 183, 2-({4-[(4-Cyclobutylpiperazin-1-yl)methyl]phenyl}oxy)-6-methyl[1,3]thiazolo[4,5-b]pyridine]"
6,6.24,"NC(=O)C1CCN(Cc2ccc(Oc3nc4cccnc4s3)cc2)CC1 [Example 113, 1-[4-([1,3]Thiazolo[5,4-b]pyridin-2-yloxy)benzyl]piperidine-4-carboxamide]"
7,6.80,"OC1(c2cccc(C(F)(F)F)c2)CCN(CCOc2ccc(Oc3nc4cccnc4s3)cc2)CC1 [Example 37, 1-{2-[4-([1,3]Thiazolo[5,4-b]pyridin-2-yloxy)phenoxy]ethyl}-4-[3-(trifluoromethyl)phenyl]piperidin-4-ol]"
8,6.85,"CN(C)C1CCN(Cc2ccc(Oc3nc4ncccc4s3)cc2)CC1 [Example 259, N,N-Dimethyl-1-[4-([1,3]thiazolo[4,5-b]pyridin-2-yloxy)benzyl]piperidin-4-amine]"
9,6.67,"CC(C)(C)C1CCN(Cc2ccc(Oc3nc4ncc(Cl)cc4s3)cc2)CC1 [Example 218, 2-{4-[(4-tert-Butylpiperidin-1-yl)methyl]phenoxy}-6-chloro[1,3]thiazolo[4,5-b]pyridine]"
10,7.48,"CC(=O)N1CC(CN(C)Cc2ccc(Oc3nc4ncc(Cl)cc4s3)cc2)C1 [Example 247, 1-(1-Acetylazetidin-3-yl)-N-{4-[(6-chloro[1,3]thiazolo[4,5-b]pyridin-2-yl)oxy]benzyl}-N-methylmethanamine]"
11,6.89,"c1ccc(OC2CCN(CCOc3ccc(Oc4nc5ncccc5s4)cc3)CC2)cc1 [Example 8, 2-{4-[2-(4-Phenoxypiperidin-1-yl)ethoxy]phenoxy}[1,3]thiazolo[4,5-b]pyridine]"
12,5.73,"CN1CCN(Cc2ccc(Oc3nc4cccnc4s3)cc2)CCC1=O [Example 207, 4-Methyl-1-[4-([1,3]thiazolo[5,4-b]pyridin-2-yloxy)benzyl]-1,4-diazepan-5-one]"
13,7.22,"COCC(=O)NC1CCN(Cc2ccc(Oc3nc4ncc(C)cc4s3)cc2)CC1 [Example 216, 2-Methoxy-N-(1-{4-[(6-methyl[1,3]thiazolo[4,5-b]pyridin-2-yl)oxy]benzyl}piperidin-4-yl)acetamide]"
14,6.80,"OC1(c2ccc(Cl)cc2)CCN(CCOc2ccc(Oc3nc4nccnc4s3)cc2)CC1 [Example 25, 4-(4-Chlorophenyl)-1-{2-[4-([1,3]thiazolo[4,5-b]pyrazin-2-yloxy)phenoxy]ethyl}piperidin-4-ol]"
15,6.04,"O=C(O)CN(Cc1ccccc1)Cc1ccc(Oc2nc3ncccc3s2)cc1 [Example 274, N-Benzyl-N-[4-([1,3]thiazolo[4,5-b]pyridin-2-yloxy)benzyl]glycine]"
16,6.47,"COc1ccccc1C1CCN(CCOc2ccc(Oc3nc4cccnc4s3)cc2)CC1 [Example 41, 2-(4-{2-[4-(2-Methoxyphenyl)piperidin-1-yl]ethoxy}phenoxy)[1,3]thiazolo[5,4-b]pyridine]"
17,6.75,"CCOC(=O)CN(Cc1ccccc1)Cc1ccc(Oc2nc3ncccc3s2)cc1 [Example 273, Ethyl N-benzyl-N-[4-([1,3]thiazolo[4,5-b]pyridin-2-yloxy)benzyl]glycinate]"
18,6.20,"O=C1CCN(CCc2ccc(Oc3nc4nccnc4s3)cc2)CCN1 [Example 177, 1-{2-[4-([1,3]Thiazolo[4,5-b]pyrazin-2-yloxy)phenyl]ethyl}-1,4-diazepan-5-one]"
19,< 5.00,"CC(=O)N1C[C@@H]2C[C@H]1CN2Cc1ccc(Oc2nc3c(C)ccnc3s2)cc1 [Example 281, 2-(4-{[(1S,4S)-5-Acetyl-2,5-diazabicyclo[2.2.1]hept-2-yl]methyl}phenoxy)-7-methyl[1,3]thiazolo[5,4-b]pyridine]"
20,6.25,"Clc1cnc2nc(Oc3ccc(CCN4CCC(N5CCCCC5)CC4)cc3)sc2c1 [Example 223, 1′-(2-{4-[(6-Chloro[1,3]thiazolo[4,5-b]pyridin-2-yl)oxy]phenyl}ethyl)-1,4′-bipiperidine]"
21,6.87,"CC(=O)N(C)[C@@H]1C[C@H]2CC[C@@H](C1)N2Cc1ccc(Oc2nc3cccnc3s2)cc1 [Example 228, meso-N-Methyl-N-{(3-exo)-8-[4-([1,3]thiazolo[5,4-b]pyridin-2-yloxy)benzyl]-8-azabicyclo[3.2.1]oct-3-yl}acetamide]"
22,7.31,"Cc1ccnc2nc(Oc3ccc(CN4[C@@H]5CC[C@H]4CN(S(C)(=O)=O)C5)cc3)sc12 [Example 205, meso-7-Methyl-2-(4-{[3-(methylsulfonyl)-3,8-diazabicyclo[3.2.1]oct-8-yl]methyl}phenoxy)[1,3]thiazolo[4,5-b]pyridine]"
23,8.52,"CC(=O)N1[C@@H]2CC[C@H]1C[C@H](NCCc1ccc(Oc3nc4ncccc4s3)cc1)C2 [Example 214, meso-(3-exo)-8-Acetyl-N-{2-[4-([1,3]thiazolo[4,5-b]pyridin-2-yloxy)phenyl]ethyl}-8-azabicyclo[3.2.1]octan-3-amine]"
24,8.22,"NC(=O)N1[C@@H]2CC[C@H]1CN(CCc1ccc(Oc3nc4ncccc4s3)cc1)C2 [Example 210, meso-3-{2-[4-([1,3]Thiazolo[4,5-b]pyridin-2-yloxy)phenyl]ethyl}-3,8-diazabicyclo[3.2.1]octane-8-carboxamide hydrochloride]"
25,7.62,"NC(=O)N1C[C@H]2CC[C@@H](C1)N2CCOc1ccc(Oc2nc3ncccc3s2)cc1 [Example 211, meso-8-{2-[4-([1,3]Thiazolo[4,5-b]pyridin-2-yloxy)phenoxy]ethyl}-3,8-diazabicyclo[3.2.1]octane-3-carboxamide]"
26,6.48,"NC(=O)N1CC2CN(CCc3ccc(Oc4nc5ccncc5s4)cc3)CC2C1 (centres unmarked) [Example 246, 5-{2-[4-([1,3]Thiazolo[5,4-c]pyridin-2-yloxy)phenyl]ethyl}hexahydropyrrolo[3,4-c]pyrrole-2(1H)-carboxamide]"
27,6.37,"Clc1ccc(SC2CCN(CCOc3ccc(Oc4nc5ncccc5s4)cc3)CC2)cc1 [Example 136, 2-[4-(2-{4-[(4-Chlorophenyl)sulfanyl]piperidin-1-yl}ethoxy)phenoxy][1,3]thiazolo[4,5-b]pyridine]"
28,7.39,"c1cnc2nc(Oc3ccc(OCCNC4CC4)cc3)sc2c1 [Example 139, N-{2-[4-([1,3]Thiazolo[4,5-b]pyridin-2-yloxy)phenoxy]ethyl}cyclopropanamine]"
29,6.10,"CN(Cc1ccc(Oc2nc3ccncc3s2)cc1)C1CCCCC1 [Example 175, N-Methyl-N-[4-([1,3]thiazolo[5,4-c]pyridin-2-yloxy)benzyl]cyclohexanamine]"
